Assay results reported in patent US20200016159A1, “N3-CYCLICALLY SUBSTITUTED THIENOURACILS AND USE THEREOF” (Bayer Aktiengesellschaft, priority 2016, published 2020).
pIC50: −log10 of the molar value.

The molecules below were run against T1, human adenosine A2b receptor (Homo sapiens, UniProt P29275) (assay: Cellular in vitro reporter gene test for A2b receptor activity (antagonism of NECA)). Conditions: recombinant CHO-K1 cells, CRE-luciferase reporter, co-incubation with EC50 concentration of NECA, 3 hours.
T1 sequence (P29275 1-332): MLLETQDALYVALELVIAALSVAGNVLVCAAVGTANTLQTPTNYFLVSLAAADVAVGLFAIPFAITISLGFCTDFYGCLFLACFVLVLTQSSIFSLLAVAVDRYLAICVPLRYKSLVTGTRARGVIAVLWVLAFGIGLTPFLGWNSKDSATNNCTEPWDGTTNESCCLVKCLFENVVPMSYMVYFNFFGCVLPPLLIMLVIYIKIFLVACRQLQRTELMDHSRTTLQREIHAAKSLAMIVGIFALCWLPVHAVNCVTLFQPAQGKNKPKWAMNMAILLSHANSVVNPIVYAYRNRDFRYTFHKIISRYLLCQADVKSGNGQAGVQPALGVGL
Format: cell-based
Parameters: expressed in transfected cells; host or cells: CHO-K1 (Chinese hamster ovary) with CRE-luciferase reporter
Method in brief: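 CHO-K1 cells expressing recombinant human A2b receptor plus a CRE-driven firefly luciferase reporter. Compounds co-incubated with NECA at its same-day EC50 concentration; luminescence read 3 hours after NECA addition. IC50 values, sometimes means of several determinations rounded to two significant figures.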

Question: How did the pIC50 turn out when CCC1(n2c(=O)c3c(C)c(CN4CCNC4=O)sc3n(CCOC)c2=O)CC1 [Example 108, 3-(1-Ethylcyclopropyl)-1-(2-methoxyethyl)-5-methyl-6-[(2-oxoimidazolidin-1-yl)methyl]thieno[2,3-d]pyrimidine-2,4(1H,3H)-dione] was run?
Answer: 6.96

Question: COCCn1c(=O)n([C@H]2C[C@@H](OC)C2)c(=O)c2c(C)c(CN3CCNC3=O)sc21 [Example 159, 3-(cis-3-Methoxycyclobutyl)-1-(2-methoxyethyl)-5-methyl-6-[(2-oxoimidazolidin-1-yl)methyl]thieno[2,3-d]pyrimidine-2,4(1H,3H)-dione] was tested. Which pIC50 did it give?
Answer: 6.70

Question: How did the pIC50 turn out when Cc1c(Cn2nc[nH]c2=O)sc2c1c(=O)n(C1CC1)c(=O)n2CCOC(C)C [Example 34, 3-Cyclopropyl-1-(2-isopropoxyethyl)-5-methyl-6-[(5-oxo-4,5-dihydro-H-1,2,4-triazol-1-yl)methyl]thieno[2,3-d]pyrimidine-2,4(1H,3H)-dione] was run?
Answer: 6.30

Question: CCCn1c(=O)n(C2CC2)c(=O)c2c(C)c(Cn3nc[nH]c3=O)sc21 [Example 195, 3-Cyclopropyl-5-methyl-6-[(5-oxo-4,5-dihydro-1H-1,2,4-triazol-1-yl)methyl]-1-propylthieno[2,3-d]pyrimidine-2,4(1H,3H)-dione] was tested. Which pIC50 did it give?
Answer: 6.92

Question: COC(=O)N=C1NCCN1Cc1sc2c(c1C)c(=O)n(C1CCC1)c(=O)n2CCC(F)(F)F [Example 112, Methyl [1-{[3-cyclobutyl-5-methyl-2,4-dioxo-1-(3,3,3-trifluoropropyl)-1,2,3,4-tetrahydrothieno[2,3-d]pyrimidin-6-yl]methyl}imidazolidin-2-ylidene]carbamate] was tested. Which pIC50 did it give?
Answer: 8.92

Question: With COCCn1c(=O)n(C2CCC2)c(=O)c2c(C)c(Cn3nc[nH]c3=O)sc21 [Example 119, 3-Cyclobutyl-1-(2-methoxyethyl)-5-methyl-6-[(5-oxo-4,5-dihydro-H-1,2,4-triazol-1-yl)methyl]thieno[2,3-d]pyrimidine-2,4(1H,3H)-dione] as the molecule, how does the pIC50 read?
Answer: 7.92

Question: How did the pIC50 turn out when Cc1c(Cn2nc[nH]c2=O)sc2c1c(=O)n(C1(C)CC1)c(=O)n2CCC(F)(F)F [Example 60, 5-Methyl-3-(1-methylcyclopropyl)-6-[(5-oxo-4,5-dihydro-1H-1,2,4-triazol-1-yl)methyl]-1-(3,3,3-trifluoropropyl)thieno[2,3-d]pyrimidine-2,4(1H,3H)-dione] was run?
Answer: 7.82

Question: With Cc1c(CN2CCNC2=O)sc2c1c(=O)n(C1CC1(C)C)c(=O)n2CCC(F)(F)F (single isomer, unassigned) [Example 102, 3-(2,2-Dimethylcyclopropyl)-5-methyl-6-[(2-oxoimidazolidin-1-yl)methyl]-1-(3,3,3-trifluoropropyl)thieno[2,3-d]pyrimidine-2,4(1H,3H)-dione] as the molecule, how does the pIC50 read?
Answer: 8.14

Question: Cc1c(Cn2nc[nH]c2=O)sc2c1c(=O)n(C1CC1)c(=O)n2CCCC#N [Example 212, 4-{3-Cyclopropyl-5-methyl-2,4-dioxo-6-[(5-oxo-4,5-dihydro-1H-1,2,4-triazol-1-yl)methyl]-3,4-dihydrothieno[2,3-d]pyrimidin-1 (2H)-yl}butanenitrile] was tested. Which pIC50 did it give?
Answer: 6.62

Question: Cc1c(CN2CCNC2=O)sc2c1c(=O)n(C1CC1C)c(=O)n2CC1CC(F)(F)C1 (single isomer, unassigned) [Example 253, 1-[(3,3-Difluorocyclobutyl)methyl]-5-methyl-3-(2-methylcyclopropyl)-6-[(2-oxoimidazolidin-1-yl)methyl]thieno[2,3-d]pyrimidine-2,4(1H,3H)-dione] was tested. Which pIC50 did it give?
Answer: 8.57

Question: How did the pIC50 turn out when Cc1c(CN2CCNC2=O)sc2c1c(=O)n(C1CC1(C)C)c(=O)n2CCCF (single isomer, unassigned) [Example 98, 3-(2,2-Dimethylcyclopropyl)-1-(3-fluoropropyl)-5-methyl-6-[(2-oxoimidazolidin-1-yl)methyl]thieno[2,3-d]pyrimidine-2,4(1H,3H)-dione] was run?
Answer: 6.85

Question: How did the pIC50 turn out when Cc1c(Cn2nc[nH]c2=O)sc2c1c(=O)n(C1CC1)c(=O)n2CCF [Example 196, 3-Cyclopropyl-1-(2-fluoroethyl)-5-methyl-6-[(5-oxo-4,5-dihydro-1H-1,2,4-triazol-1-yl)methyl]thieno[2,3-d]pyrimidine-2,4(1H,3H)-dione] was run?
Answer: 6.68
